Reference: PubChem BioAssay (NCI)
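Cultured in 96-well plates, cells were exposed to test compound for 48 hours across five concentrations. TGI is the concentration that stops growth completely.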

What was measured:
Experiment in all cases: NCI tumour cell line growth inhibition, 48 h
IGROV1 ovarian = tested on: IGROV1 ovarian
DMS 114 small cell lung = tested on: DMS 114 small cell lung
MALME-3M melanoma = tested on: MALME-3M melanoma
M19-MEL melanoma = tested on: M19-MEL melanoma
RXF 393 renal = tested on: RXF 393 renal
HCT-116 colon = tested on: HCT-116 colon
SF-268 CNS = tested on: SF-268 CNS
SF-539 CNS = tested on: SF-539 CNS
SK-MEL-28 melanoma = tested on: SK-MEL-28 melanoma
SK-MEL-5 melanoma = tested on: SK-MEL-5 melanoma
CCRF-CEM leukemia = tested on: CCRF-CEM leukemia
U251 CNS = tested on: U251 CNS
KM12 colon = tested on: KM12 colon
DLD-1 colon = tested on: DLD-1 colon
COLO 205 colon = tested on: COLO 205 colon
RPMI-8226 leukemia = tested on: RPMI-8226 leukemia
MOLT-4 leukemia = tested on: MOLT-4 leukemia
SN12C renal = tested on: SN12C renal
HT29 colon = tested on: HT29 colon
SR leukemia = tested on: SR leukemia
LOX IMVI melanoma = tested on: LOX IMVI melanoma
ACHN renal = tested on: ACHN renal
NCI-H226 lung = tested on: NCI-H226 lung
HCC-2998 colon = tested on: HCC-2998 colon
HCT-15 colon = tested on: HCT-15 colon
HOP-92 NSCLC = tested on: HOP-92 NSCLC
SNB-78 CNS = tested on: SNB-78 CNS
A498 renal = tested on: A498 renal
SK-MEL-2 melanoma = tested on: SK-MEL-2 melanoma
NCI-H23 lung = tested on: NCI-H23 lung
SNB-19 CNS = tested on: SNB-19 CNS
OVCAR-3 ovarian = tested on: OVCAR-3 ovarian
UO-31 renal = tested on: UO-31 renal
SK-OV-3 ovarian = tested on: SK-OV-3 ovarian
K-562 leukemia = tested on: K-562 leukemia
LXFL 529 NSCLC = tested on: LXFL 529 NSCLC
SF-295 CNS = tested on: SF-295 CNS
NCI-H522 lung = tested on: NCI-H522 lung
UACC-257 melanoma = tested on: UACC-257 melanoma
SW-620 colon = tested on: SW-620 colon
HOP-62 NSCLC = tested on: HOP-62 NSCLC
OVCAR-5 ovarian = tested on: OVCAR-5 ovarian
NCI-H460 lung = tested on: NCI-H460 lung
A549 NSCLC = tested on: A549 NSCLC
OVCAR-8 ovarian = tested on: OVCAR-8 ovarian
786-0 renal = tested on: 786-0 renal
M14 melanoma = tested on: M14 melanoma
EKVX NSCLC = tested on: EKVX NSCLC
CAKI-1 renal = tested on: CAKI-1 renal
NCI/ADR-RES ovarian = tested on: NCI/ADR-RES ovarian
MCF7 breast = tested on: MCF7 breast
MDA-MB-231 breast = tested on: MDA-MB-231 breast
BT-549 breast = tested on: BT-549 breast
HL-60(TB) leukemia = tested on: HL-60(TB) leukemia
TK-10 renal = tested on: TK-10 renal
PC-3 prostate = tested on: PC-3 prostate
OVCAR-4 ovarian = tested on: OVCAR-4 ovarian
UACC-62 melanoma = tested on: UACC-62 melanoma
SNB-75 CNS = tested on: SNB-75 CNS
DU-145 prostate = tested on: DU-145 prostate
MDA-N = tested on: MDA-N
MDA-MB-435 = tested on: MDA-MB-435
T-47D breast = tested on: T-47D breast
HS 578T breast = tested on: HS 578T breast

For `CN/N=C(\C(=O)Nc1ccc(C(F)(F)F)cc1[N+](=O)[O-])C(c1cnc2ccc([N+](=O)[O-])cc2n1)[N+](=O)[O-]` (stereo not drawn), the TGI (IGROV1 ovarian) was > 100 µM, the TGI (DMS 114 small cell lung) was > 100 µM and the TGI (MALME-3M melanoma) was > 100 µM. The TGI (M19-MEL melanoma) was > 100 µM, the TGI (RXF 393 renal) was > 100 µM and the TGI (HCT-116 colon) was > 100 µM. The TGI (SF-268 CNS) was > 100 µM, the TGI (SF-539 CNS) was > 100 µM and the TGI (SK-MEL-28 melanoma) was > 100 µM. For the same compound, the TGI (SK-MEL-5 melanoma) was > 100 µM, the TGI (CCRF-CEM leukemia) was > 100 µM and the TGI (U251 CNS) was > 100 µM. The TGI (KM12 colon) was > 100 µM, the TGI (DLD-1 colon) was > 100 µM and the TGI (COLO 205 colon) was > 100 µM. For the same compound, the TGI (RPMI-8226 leukemia) was > 100 µM, the TGI (MOLT-4 leukemia) was > 100 µM and the TGI (SN12C renal) was > 100 µM. The TGI (HT29 colon) was > 100 µM, the TGI (SR leukemia) was > 100 µM and the TGI (LOX IMVI melanoma) was > 100 µM. The TGI (ACHN renal) was > 100 µM, the TGI (NCI-H226 lung) was 78.5 µM and the TGI (HCC-2998 colon) was 84.8 µM. For the same compound, the TGI (HCT-15 colon) was > 100 µM, the TGI (HOP-92 NSCLC) was > 100 µM and the TGI (SNB-78 CNS) was > 100 µM. The TGI (A498 renal) was > 100 µM, the TGI (SK-MEL-2 melanoma) was > 100 µM and the TGI (NCI-H23 lung) was > 100 µM. The TGI (SNB-19 CNS) was > 100 µM, the TGI (OVCAR-3 ovarian) was > 100 µM and the TGI (UO-31 renal) was > 100 µM. The TGI (SK-OV-3 ovarian) was > 100 µM, the TGI (K-562 leukemia) was > 100 µM and the TGI (LXFL 529 NSCLC) was > 100 µM. For the same compound, the TGI (SF-295 CNS) was > 100 µM, the TGI (NCI-H522 lung) was 66.3 µM and the TGI (UACC-257 melanoma) was > 100 µM. The TGI (SW-620 colon) was > 100 µM, the TGI (HOP-62 NSCLC) was > 100 µM and the TGI (OVCAR-5 ovarian) was 79.5 µM. For the same compound, the TGI (NCI-H460 lung) was > 100 µM, the TGI (A549 NSCLC) was > 100 µM and the TGI (OVCAR-8 ovarian) was > 100 µM. For the same compound, the TGI (786-0 renal) was > 100 µM, the TGI (M14 melanoma) was > 100 µM and the TGI (EKVX NSCLC) was 65.9 µM. For the same compound, the TGI (CAKI-1 renal) was > 100 µM.

For `c1ccc(SCCc2ccncc2)cc1`, the TGI (IGROV1 ovarian) was > 100 µM, the TGI (NCI/ADR-RES ovarian) was > 100 µM and the TGI (MALME-3M melanoma) was > 100 µM. The TGI (RXF 393 renal) was > 100 µM, the TGI (HCT-116 colon) was > 100 µM and the TGI (SF-268 CNS) was > 100 µM. The TGI (SF-539 CNS) was > 100 µM, the TGI (SK-MEL-28 melanoma) was > 100 µM and the TGI (MCF7 breast) was > 100 µM. For the same compound, the TGI (SK-MEL-5 melanoma) was > 100 µM, the TGI (CCRF-CEM leukemia) was > 100 µM and the TGI (U251 CNS) was > 100 µM. For the same compound, the TGI (MDA-MB-231 breast) was > 100 µM, the TGI (KM12 colon) was > 100 µM and the TGI (COLO 205 colon) was > 100 µM. For the same compound, the TGI (RPMI-8226 leukemia) was > 100 µM, the TGI (MOLT-4 leukemia) was > 100 µM and the TGI (SN12C renal) was > 100 µM. For the same compound, the TGI (BT-549 breast) was > 100 µM, the TGI (HL-60(TB) leukemia) was > 100 µM and the TGI (TK-10 renal) was > 100 µM. For the same compound, the TGI (HT29 colon) was > 100 µM, the TGI (PC-3 prostate) was > 100 µM and the TGI (SR leukemia) was > 100 µM. For the same compound, the TGI (LOX IMVI melanoma) was > 100 µM, the TGI (OVCAR-4 ovarian) was > 100 µM and the TGI (ACHN renal) was > 100 µM. For the same compound, the TGI (NCI-H226 lung) was > 100 µM, the TGI (HCC-2998 colon) was > 100 µM and the TGI (HCT-15 colon) was > 100 µM. The TGI (UACC-62 melanoma) was > 100 µM, the TGI (HOP-92 NSCLC) was > 100 µM and the TGI (SNB-75 CNS) was > 100 µM. The TGI (A498 renal) was > 100 µM, the TGI (SK-MEL-2 melanoma) was > 100 µM and the TGI (NCI-H23 lung) was > 100 µM. For the same compound, the TGI (DU-145 prostate) was > 100 µM, the TGI (SNB-19 CNS) was > 100 µM and the TGI (MDA-N) was > 100 µM. The TGI (OVCAR-3 ovarian) was > 100 µM, the TGI (UO-31 renal) was > 100 µM and the TGI (SK-OV-3 ovarian) was > 100 µM. The TGI (K-562 leukemia) was > 100 µM, the TGI (MDA-MB-435) was > 100 µM and the TGI (SF-295 CNS) was > 100 µM. For the same compound, the TGI (NCI-H522 lung) was > 100 µM, the TGI (UACC-257 melanoma) was > 100 µM and the TGI (SW-620 colon) was > 100 µM. The TGI (HOP-62 NSCLC) was > 100 µM, the TGI (T-47D breast) was > 100 µM and the TGI (OVCAR-5 ovarian) was > 100 µM. For the same compound, the TGI (NCI-H460 lung) was > 100 µM, the TGI (A549 NSCLC) was > 100 µM and the TGI (HS 578T breast) was > 100 µM. The TGI (OVCAR-8 ovarian) was > 100 µM, the TGI (786-0 renal) was > 100 µM and the TGI (M14 melanoma) was > 100 µM. The TGI (EKVX NSCLC) was > 100 µM and the TGI (CAKI-1 renal) was > 100 µM.
